Measurements from the supplement of paper PMC11127212.

Key:
[1] = retention time on BEH HILIC column (20 min gradient, 0.4 mL/min); higher = later elution; details: LC: HILIC
Procedure: (§1)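 Reference standards (20-100 uM) were separated by HILIC UPLC (BEH HILIC, 45 °C): acidic pH 3.0 ammonium formate/formic acid for ESI+ and basic pH 9.0 ammonium acetate/ammonia for ESI-. They were analysed on a Synapt G2-Si traveling-wave IMS-QTOF with nitrogen drift gas (WH 30 V; WV 800 m/s in ESI+ and 1000 m/s in ESI-).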

[2] = collision cross section (TWIMS, N2) of ion [M-H]-; higher = larger gas-phase ion cross section; details: ionization: ESI negative; LC: HILIC, pH 9.0 ammonium acetate
Procedure: as §1

[3] = collision cross section (TWIMS, N2) of ion [M+H]+; higher = larger gas-phase ion cross section; details: ionization: ESI positive; LC: HILIC, pH 3.0 ammonium formate
Procedure: as §1

[4] = ionization: ESI negative, pH 9.0 ammonium acetate
[5] = ionization: ESI positive, pH 3.0 ammonium formate

retention time on BEH HILIC column [1, 4] [min] | retention time on BEH HILIC column [1, 5] [min] | collision cross section [2] [Å²] | collision cross section [3] [Å²] | SMILES
2.31 | 2.28 | 121.62 | 125.05 | Oc1ncnc2nc[nH]c12 [Hypoxanthine]
7.05 |  | 121.74 |  | CC[C@H](N)C(=O)O [2-aminobutyric acid]
11.2 | 11.1 | 129.53 | 129.31 | NCCC[C@H](N)C(=O)O [Ornithine]
12.3 |  | 190.77 |  | Nc1ncnc2c1ncn2[C@@H]1O[C@H](COP(=O)(O)OP(=O)(O)OP(=O)(O)O)[C@@H](O)[C@H]1O [ATP]
9.42 |  | 219.62 |  | CC(=O)N[C@H]1[C@@H](OP(=O)(O)OP(=O)(O)OC[C@H]2O[C@@H](n3ccc(=O)[nH]c3=O)[C@H](O)[C@@H]2O)O[C@H](CO)[C@@H](O)[C@@H]1O [UDPAG]
 | 1.21 |  | 123.01 | NC(=O)c1cccnc1 [Niacinamide]
13 |  | 118.53 |  | O=C(O)C[C@H](O)C(=O)O [Malic acid]
9.22 |  | 139.6 |  | O=P(O)(O)OC[C@H]1O[C@H](O)[C@H](O)[C@@H]1O [D-ribose 5-phosphate]
1.5 |  | 118.44 |  | O=C(O)CCC(=O)O [Succinic acid]
7.75 |  | 118.21 |  | N[C@@H](CO)C(=O)O [L-serine]
11.1 |  | 128.76 |  | O=C(O)CC(O)(CC(=O)O)C(=O)O [Citric acid]
4.91 |  | 119.85 |  | O=C(O)C(O)CCO (stereo unspecified) [2,4-dihydroxybutyric acid]
0.77 |  | 141.36 |  | CCCCCCCC(=O)O [Caprylic acid]
9.95 |  | 147.62 |  | O=P(O)(O)O[C@H]1O[C@H](CO)[C@@H](O)[C@H](O)[C@H]1O [Glucose 1-phosphate]
7.5 |  | 121.54 |  | C[C@@H](O)[C@H](N)C(=O)O [L-threonine]
0.9 |  | 123.48 |  | CC(C)CC(=O)O [Isovaleric acid]
12.3 |  | 150.31 |  | N[C@@H]1[C@@H](O)[C@H](O)[C@@H](COP(=O)(O)O)O[C@@H]1O [Glucosamine 6-phosphate]
1.55 |  | 124.78 |  | CCC(C)(O)C(=O)O (stereo unspecified) [2-hydroxy-2-methyl butyric acid]
1.03 |  | 123.21 |  | CCC(CO)C(=O)O (stereo unspecified) [2-ethylhydracrylic acid]
 | 8.64 |  | 137.38 | C[N+](C)(C)C[C@H](O)CC(=O)O [L-carnitine]
11.5 |  | 120.3 |  | N[C@@H](CC(=O)O)C(=O)O [L-aspartic acid]
12.9 |  | 159.01 |  | O=P(O)(O)OC[C@H]1O[C@](O)(COP(=O)(O)O)[C@@H](O)[C@@H]1O [Fructose 1,6-bisphosphate]
0.97 |  | 107.41 |  | C[C@@H](O)CC(=O)O [3-hydroxybutyric acid]
1.93 |  | 128.21 |  | CC(C)CC(=O)C(=O)O [Ketoleucine]

Further lines, the compound ahead of its results:

SMILES | retention time on BEH HILIC column [1, 4] [min] | retention time on BEH HILIC column [1, 5] [min] | collision cross section [2] [Å²] | collision cross section [3] [Å²]
NCCc1ccc(O)c(O)c1 [Dopamine] | 4.35 | 4.6 | 130.85 | 139.55
Nc1ccccc1C(=O)O [2-aminobenzoic acid] | 0.97 | 0.82 | 126.13 | 124.05
NCCc1c[nH]c2ccc(O)cc12 [Serotonin] | 3.73 |  | 137.88 | 
CCCCCCCCC(=O)OC [Methyl nonanoate] | 1.03 | 1.03 | 144.8 | 148.93
NCCCNCCCCNCCCN [Spermine] |  | 13.9 |  | 150.86
O=P(O)(O)OC[C@H]1O[C@@](O)(CO)[C@@H](O)[C@H](O)[C@@H]1O [D-sedoheptulose 7-phosphate] | 9.82 |  | 150.55 | 
CC[C@H](C)C(=O)C(=O)O [3-methyl-2-oxopentanoic acid] | 1.93 |  | 126.71 | 
CC(O)C(C)C(=O)O (stereo unspecified) [3-hydroxy-2-methylbutanoic acid] | 1.1 |  | 124.78 | 
NC(=O)C[C@H](N)C(=O)O [L-asparagine] | 8.32 |  | 123.48 | 
C[C@@H](CC(=O)O)C(=O)O [Methylsuccinic acid] | 1.28 |  | 121.94 | 
O=C(O)[C@H]1O[C@H](OP(=O)(O)OP(=O)(O)OC[C@H]2O[C@@H](n3ccc(=O)[nH]c3=O)[C@H](O)[C@@H]2O)[C@H](O)[C@@H](O)[C@@H]1O [UDPGA] | 10.4 |  | 209.99 | 
N[C@@H](CCC(=O)O)C(=O)O [L-glutamic acid] | 8.21 |  | 125.39 | 
CCCCCCCCCCCCCC(=O)O [Myristic acid] | 0.73 |  | 168.91 | 
O=P(O)(O)O[C@H]1O[C@H](CO)[C@H](O)[C@H](O)[C@H]1O [Galactose 1-phosphate] | 11.8 |  | 147.62 | 
CC(C)C(=O)O [Isobutyric acid] | 3.29 |  | 118.84 | 
CCCC(=O)O [Butyric acid] | 3.72 |  | 122.31 | 
Nc1ncnc2c1ncn2[C@@H]1O[C@H](COP(=O)(O)OP(=O)(O)O)[C@@H](O)[C@H]1O [ADP] | 12.6 |  | 183.67 | 
C[C@H](N)C(=O)O [L-alanine] | 7.42 |  | 117.06 | 
CCCCC(C)C(=O)O (stereo unspecified) [2-methylhexanoic acid] | 0.8 |  | 134.11 | 
NCCCCNCCCN [Spermidine] |  | 12.7 |  | 135.15
C[C@H](O)C(=O)O [Lactic acid] | 2.86 |  | 116.91 | 
O=C(O)CCC(=O)C(=O)O [a-ketoglutaric acid] | 5.51 |  | 122.3 | 
CC[C@H](O)C(=O)O [2-hydroxybutyric acid] | 1.95 |  | 119.98 | 
CCCCC(=O)O [Valeric acid] | 3.22 |  | 123.48 | 
